Assay results published in patent US6713474B2, “Pyrrolopyrimidines as therapeutic agents” (Abbott GmbH & Co. KG, priority 1998, dated 2004).

SMILES	melting point
COCCCNc1cccc(Oc2ccc(-c3cn(C4CCOCC4)c4ncnc(N)c34)cc2)c1C#N [Example 52, 2-[4-(4-Amino-7-(4-tetrahydropyranyl)-7H-pyrrolo[2,3-d]pyrimidin-5-yl)phenoxy)-6-(3-methoxypropylamino)benzonitrile]	205 to 207 °C
CN1CCN([C@H]2CCC[C@H](n3cc(-c4ccc(Oc5ccccc5)cc4)c4c(N)ncnc43)C2)CC1.Cl.Cl.Cl (relative stereo) (hydrate or solvate)	304 to 306 °C (dec.)
Nc1ncnc2c1c(-c1ccc(Oc3ccccc3CN3CCOCC3)cc1)cn2C1CCOC1 (centres unmarked) [Example 31, 5-[4-(2-Morpholinomethylphenoxy)phenyl]-7-(3-tetrahydrofuryl)-7H-pyrrolo[2,3-d]pyrimidin-4-ylamine]	169 to 171 °C
Nc1ncnc2c1c(-c1ccc(Oc3ccccc3CN3CCCCC3)cc1)cn2C1CCOC1 (centres unmarked) [Example 32, 5-[4-(2-Piperidinomethylphenoxy)phenyl]-7-(3-tetrahydrofuryl)-7H-pyrrolo[2,3-d]pyrimidin-4-ylamine]	76 to 78 °C
Nc1ncnc2c1c(-c1ccc(Oc3ccccc3)cc1)cn2[C@H]1CC[C@@H](N2CCCC2)CC1 [Example 193, cis-5-(4-Phenoxyphenyl)-7-(4-pyrrolidinocyclohex-1-yl)-7H-pyrrolo[2,3-d]pyrimidin-4-ylamine]	101 to 104 °C
COCCNCc1ccccc1Oc1ccc(-c2cn(C3CCOC3)c3ncnc(N)c23)cc1 (centres unmarked) [Example 33, 5-{4-[2-(2-Methoxyethyl)aminomethylphenoxy]phenyl}-7-(3-tetrahydrofuryl)-7H-pyrrolo[2,3-d]-pyrimidin-4-ylamine]	66 to 68 °C
N#Cc1c(OCCN2CCOCC2)cccc1Oc1ccc(-c2cn(C3CCOCC3)c3ncnc(N)c23)cc1 [Example 50, 2-(4-(4-Amino-7-(4-tetrahydropyranyl)-7H-pyrrolo[2,3-d]pyrimidin-5-yl)phenoxy]-6-(2-morpholinoethoxy)benzonitrile]	110 °C
N#Cc1c(NCCc2ccncc2)cccc1Oc1ccc(-c2cn(C3CCOC3)c3ncnc(N)c23)cc1 (centres unmarked) [Example 38, 2-[4-(4-Amino-7-(3-tetrahydrofuryl)-7H-pyrrolo[2,3-d]pyrimidin-5-yl)phenoxy]-6-(2-(4-pyridyl)ethylamino)-benzonitrile]	212 to 213 °C
Nc1ncnc2c1c(-c1ccc(Oc3ccc(F)cc3)cc1)cn2C1CCOC1 (centres unmarked) [Example 35, 5-[4-(4-Fluorophenoxy)phenyl]-7-(3-tetrahydrofuryl)-7H-pyrrolo[2,3-d]pyrimidin-4-ylamine]	198 to 199 °C

More lines, now with the values ahead:

melting point	SMILES
111 to 112 °C	Nc1ncnc2c1c(-c1ccc(Oc3ccccc3)cc1)cn2CCN1C(=O)c2ccccc2C1=O [Example 171, N-{2-[4-Amino-5-(4-phenoxyphenyl)-7H-pyrrolo[2,3-d]pyrimidin-7-yl]ethyl}phthalimide]
180 to 182 °C	CN(C)[C@H]1CC[C@@H](n2cc(-c3ccc(Oc4ccccc4)cc3)c3c(N)ncnc32)CC1 [Example 196, cis-7-(4-Dimethylaminocyclohexyl)-5-(4-phenoxyphenyl)-7H-pyrrolo[2,3-d]pyrimidin-4-ylamine]
234.5 to 235.5 °C	Nc1ncnc2c1c(-c1ccc(Oc3ccccc3)cc1)cn2C1COCC1O (centres unmarked) [Example 30, 4-[4-Amino-5-(4-phenoxyphenyl)-7H-pyrrolo-[2,3-d]pyrimidin-7-yl]tetrahydrofuran-3-ol]
145 to 147 °C	Nc1ncnc2c1c(-c1ccc(Oc3ccccc3)cc1)cn2CC(=O)NCCOCCO [Example 156, N-[-2(2-hydroxyethoxy)ethyl]-2-[4-amino-5-(4-phenoxyphenyl)-7H-pyrrolo[2,3-d]-pyrimidin-7-yl]acetamide]
193 to 194 °C	Nc1ncnc2c1c(-c1ccc(Oc3ccccc3)cc1)cn2C1CCC2(CC1)OCCO2 [Example 174, 5-(4-Phenoxyphenyl)-7-(1,4-dioxaspiro[4,5]decan-8-yl)-7H-pyrrolo[2,3-d]pyrimidin-4-ylamine]
138 to 140 °C	Nc1ncnc2c1c(-c1ccc(Oc3ccccc3)cc1)cn2CC(=O)NCCN1CCNCC1 [Example 152, N-[2-(Piperazin-1-yl)ethyl]-2-[4-amino-5-[4-phenoxyphenyl)-7H-pyrrolo[2,3-d]-pyrimidin-7-yl]acetamide]
168 to 170 °C	CC(C)(C)OC(=O)N1CCC(n2cc(-c3ccc(Oc4ccccc4)cc3)c3c(N)ncnc32)C1 (centres unmarked) [Example 203, tert-Butyl 3-[4-Amino-5-(4-phenoxyphenyl)-7H-pyrrolo[2,3-d]pyrimidin-7-yl]-1-pyrrolidinecarboxylate]
131 to 134 °C	NCc1cccnc1-n1cc(-c2ccc(Oc3ccccc3)cc2)c2c(N)ncnc21.O=C(O)/C=C\C(=O)O.O=C(O)/C=C\C(=O)O
164 to 165 °C	Nc1ncnc2c1c(-c1ccc(Oc3ccccc3)cc1)cn2CC(=O)NCCN1CCOCC1 [Example 153, N-(2-Morpholinoethyl)-2-[4-amino-5-(4-phenoxyphenyl)-7H-pyrrolo[2,3-d]pyrimidin-7-yl]acetamide]
252 to 254 °C	Nc1ncnc2c1c(-c1ccc(Oc3ccccc3)cc1)cn2C1CCC(=O)CC1 [Example 175, 4-[4-Amino-5-(4-phenoxyphenyl)-7H-pyrrolo[2,3-d]pyrimidin-7-yl]cyclohexanone]
85 to 86 °C	Nc1ncnc2c1c(-c1ccc(Oc3ccccc3)cc1)cn2CCCCCCCCN1C(=O)c2ccccc2C1=O [Example 169, 5-(4-Phenoxyphenyl)-7-(8-phthalimidooctyl)-7H-pyrrolo[2,3-d]pyrimidin-4-ylamine]
160.5 to 161 °C	CC(C)C(=O)n1cc(-c2ccc(Oc3ccccc3)cc2)c2c(N)ncnc21 [Example 173, 7-Isobutyryl-5-(4-phenoxyphenyl)-7H-pyrrolo[2,3-d]pyrimidin-4-ylamine]
146 to 148 °C	COc1cc(-c2cn([C@H]3CC[C@H](N4CCN(C)CC4)CC3)c3ncnc(N)c23)ccc1NC(=O)OCc1ccccc1.O=C(O)/C=C\C(=O)O.O=C(O)/C=C\C(=O)O.O=C(O)/C=C\C(=O)O
161 to 161.3 °C	CCOC(=O)Cn1cc(-c2ccc(Oc3ccccc3)cc2)c2c(N)ncnc21 [Example 150, Ethyl 2-[4-Amino-5-(4-phenoxyphenyl)-7H-pyrrolo[2,3-d]pyrimidin-7-yl]acetate]
